The values below come from article PMC10489750, “Exploration of Baicalein-Core Derivatives as Potent Antifungal Agents: SAR and Mechanism Insights” (Molecules, 2023).

This assay deals with T1, Eno1 (Candida albicans, UniProt P30575).
T1 sequence (P30575 1-440): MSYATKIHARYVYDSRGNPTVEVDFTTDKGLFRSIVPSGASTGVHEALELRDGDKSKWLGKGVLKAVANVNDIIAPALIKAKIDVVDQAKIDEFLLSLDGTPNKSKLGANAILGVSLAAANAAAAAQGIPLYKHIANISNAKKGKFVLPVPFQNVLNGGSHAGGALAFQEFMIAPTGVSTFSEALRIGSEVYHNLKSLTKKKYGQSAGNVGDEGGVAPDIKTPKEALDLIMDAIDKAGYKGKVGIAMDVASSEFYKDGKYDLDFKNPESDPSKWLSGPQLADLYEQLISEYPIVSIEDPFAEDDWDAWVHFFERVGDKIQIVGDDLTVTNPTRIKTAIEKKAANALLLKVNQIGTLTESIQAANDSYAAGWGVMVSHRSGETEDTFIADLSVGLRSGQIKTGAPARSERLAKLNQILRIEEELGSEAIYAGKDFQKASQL
Kind of assay: in vitro enolase assay, […] compound, absorbance at […] nm, […] Eno1. Format: biochemical.

In the case of `Nc1ccc(-c2cc(=O)c3c(O)c(O)c(O)cc3o2)cc1` [B5, 2-(4-aminophenyl)-5,6,7-trihydroxy-4H-chromen-4-one], the “in vitro enolase assay, 200 μM compound, absorbance at 240 nm, 30 nM Eno1” value is “B5 exhibited some inhibitory ability in in vitro enzyme inhibition assay, although it was weaker than BE”.
